In patent US8916711B2, “Imidazothiazole-chalcone derivatives as potential anticancer agents and process for the preparation thereof” (Council of Scientific and Industrial Research, priority 2009, dated 2014):
Where two headings read alike, the source gives them in different places.

Assays:
Type in all cases: cell-based
[1] = test system: K-562; assay: NCI in vitro cytotoxicity (SRB, 48 h), Leukemia panel; settings: Homo sapiens, K562; K-562, Leukemia; 48 h exposure
[2] = test system: NCI-H226; assay: NCI in vitro cytotoxicity (SRB, 48 h), Non-small cell lung panel; settings: Homo sapiens, 48 h exposure
[3] = test system: Ovarian cancer cell lines; assay: NCI in vitro cytotoxicity, whole panel; settings: Homo sapiens; for CC50: read-out: Log10 LC50 (converted)
[4] = test system: A549/ATCC; assay: NCI in vitro cytotoxicity (SRB, 48 h), Non-small cell lung panel; settings: Homo sapiens, 48 h exposure
[5] = test system: Melanoma cell lines; assay: NCI in vitro cytotoxicity, whole panel; settings: Homo sapiens; for CC50: read-out: Log10 LC50 (converted)
[6] = test system: OVCAR-5; assay: NCI in vitro cytotoxicity (SRB, 48 h), Ovarian panel; settings: Homo sapiens; OVCAR-5, Ovarian; 48 h exposure
[7] = test system: SF-295; assay: NCI in vitro cytotoxicity (SRB, 48 h), CNS panel; settings: Homo sapiens; SF-295, CNS; 48 h exposure
[8] = test system: Prostate cancer cell lines; assay: NCI in vitro cytotoxicity, whole panel; settings: Homo sapiens; for LC50: read-out: Log10 LC50 (converted)
[9] = test system: IGROV1; assay: NCI in vitro cytotoxicity (SRB, 48 h), Ovarian panel; settings: Homo sapiens, IGROV-1
[10] = test system: SF-539; assay: NCI in vitro cytotoxicity (SRB, 48 h), CNS panel; settings: Homo sapiens; SF-539, CNS; 48 h exposure
[11] = test system: ACHN; assay: NCI in vitro cytotoxicity (SRB, 48 h), Renal panel; settings: Homo sapiens, 48 h exposure
[12] = test system: TK-10; assay: NCI in vitro cytotoxicity (SRB, 48 h), Renal panel; settings: Homo sapiens; TK-10, Renal; 48 h exposure
[13] = test system: U251; assay: NCI in vitro cytotoxicity (SRB, 48 h), CNS panel; settings: Homo sapiens, U-251, 48 h exposure
[14] = test system: 786-0; assay: NCI in vitro cytotoxicity (SRB, 48 h), Renal panel; settings: Homo sapiens; 786-0, Renal; 48 h exposure
[15] = test system: Renal cancer cell lines; assay: NCI in vitro cytotoxicity, whole panel; settings: Homo sapiens; for CC50: read-out: Log10 LC50 (converted)
[16] = test system: Breast cancer cell lines; assay: NCI in vitro cytotoxicity, whole panel; settings: Homo sapiens; for GI50 / CC50: Breast, average of six to eight cell lines; for GI50: read-out: Log10 GI50 (converted); for CC50: read-out: Log10 LC50 (converted); for IC50: exposure period of at least 48 hrs, read-out: IC50, range over breast cell lines
[17] = test system: CAKI-1; assay: NCI in vitro cytotoxicity (SRB, 48 h), Renal panel; settings: Homo sapiens; for GI50: CAKI-1, Renal, 48 h exposure
[18] = test system: NCI-H460; assay: NCI in vitro cytotoxicity (SRB, 48 h), Non-small cell lung panel; settings: Homo sapiens, 48 h exposure
[19] = test system: LOX IMVI; assay: NCI in vitro cytotoxicity (SRB, 48 h), Melanoma panel; settings: Homo sapiens, 48 h exposure
[20] = test system: HOP-62; assay: NCI in vitro cytotoxicity (SRB, 48 h), Non-small cell lung panel; settings: Homo sapiens; HOP-62, Non-small cell lung; 48 h exposure
[21] = test system: CCRF-CEM; assay: NCI in vitro cytotoxicity (SRB, 48 h), Leukemia panel; settings: Homo sapiens, 48 h exposure
[22] = test system: HCT-116; assay: NCI in vitro cytotoxicity (SRB, 48 h), Colon panel; settings: Homo sapiens; for IC50: HCT-116, HCT116, Table 4, read-out: Comparative efficacy
[23] = test system: OVCAR-3; assay: NCI in vitro cytotoxicity (SRB, 48 h), Ovarian panel; settings: Homo sapiens; OVCAR-3, Ovarian; 48 h exposure
[24] = test system: HCT-15; assay: NCI in vitro cytotoxicity (SRB, 48 h), Colon panel; settings: Homo sapiens; HCT-15, Colon; 48 h exposure
[25] = test system: OVCAR-8; assay: NCI in vitro cytotoxicity (SRB, 48 h), Ovarian panel; settings: Homo sapiens; OVCAR-8, Ovarian; 48 h exposure
[26] = test system: SK-MEL-28; assay: NCI in vitro cytotoxicity (SRB, 48 h), Melanoma panel; settings: Homo sapiens; SK-MEL-28, Melanoma; 48 h exposure
[27] = test system: SNB-75; assay: NCI in vitro cytotoxicity (SRB, 48 h), CNS panel; settings: Homo sapiens; SNB-75, CNS; 48 h exposure
[28] = test system: NCI-H23; assay: NCI in vitro cytotoxicity (SRB, 48 h), Non-small cell lung panel; settings: Homo sapiens, 48 h exposure
[29] = test system: Non-small-cell lung cancer cell lines; assay: NCI in vitro cytotoxicity, whole panel; settings: Homo sapiens; for CC50: read-out: Log10 LC50 (converted)
[30] = test system: HS 578T; assay: NCI in vitro cytotoxicity (SRB, 48 h), Breast panel; settings: Homo sapiens, 48 h exposure
[31] = test system: SF-268; assay: NCI in vitro cytotoxicity (SRB, 48 h), CNS panel; settings: Homo sapiens; SF-268, CNS; 48 h exposure
[32] = test system: MDAMB-435; assay: NCI in vitro cytotoxicity (SRB, 48 h), Melanoma panel; settings: Homo sapiens, MDA-MB-435; MDAMB-435, Melanoma; 48 h exposure
[33] = test system: COLO 205; assay: NCI in vitro cytotoxicity (SRB, 48 h), Colon panel; settings: Homo sapiens; COLO 205, Colon; 48 h exposure
[34] = test system: MOLT-4; assay: NCI in vitro cytotoxicity (SRB, 48 h), Leukemia panel; settings: Homo sapiens; MOLT-4, Leukemia; 48 h exposure
[35] = test system: M14; assay: NCI in vitro cytotoxicity (SRB, 48 h), Melanoma panel; settings: Homo sapiens, 48 h exposure
[36] = test system: RPMI-8226; assay: NCI in vitro cytotoxicity (SRB, 48 h), Leukemia panel; settings: Homo sapiens; RPMI-8226, Leukemia; 48 h exposure
[37] = Ovarian, average of six to eight cell lines, read-out: Log10 GI50 (converted)
[38] = Ovarian, average of six to eight cell lines
[39] = exposure period of at least 48 hrs, read-out: GI50, range over ovarian cell lines
[40] = Melanoma, average of six to eight cell lines, read-out: Log10 GI50 (converted)
[41] = Melanoma, average of six to eight cell lines
[42] = exposure period of at least 48 hrs, read-out: GI50, range over melanoma cell lines
[43] = Prostate cell, exposure period of at least 48 hrs, read-out: GI50, range over prostate cell lines
[44] = Prostate, average of the panel's cell lines, read-out: Log10 GI50 (converted)
[45] = Prostate, average of the panel's cell lines
[46] = Renal, average of six to eight cell lines, read-out: Log10 GI50 (converted)
[47] = Renal, average of six to eight cell lines
[48] = exposure period of at least 48 hrs, read-out: GI50, range over renal cell lines
[49] = Non-small-cell lung, average of six to eight cell lines, read-out: Log10 GI50 (converted)
[50] = Non-small-cell lung, average of six to eight cell lines
[51] = exposure period of at least 48 hrs, read-out: GI50, range over lung cell lines

COc1cc(C(=O)/C=C/c2c(-c3ccc(F)cc3)nc3sccn23)cc(OC)c1OC [Compound 7e, (E)-3-(6-(4-fluorophenyl)imidazo[2,1-b]thiazol-5-yl)-1-(3,4,5-trimethoxyphenyl)prop-2-en-1-one]
GI50 [1]: 1550 nM | GI50 [2]: 1890 nM | GI50 [3, 37]: 2190 nM | CC50 [3, 38]: 52500 nM | GI50 [3, 39]: 1040 to 3780 nM | GI50 [4]: 2090 nM | GI50 [5, 40]: 2630 nM | CC50 [5, 41]: 42700 nM | GI50 [5, 42]: 1820 to 8270 nM | GI50 [6]: 1920 nM | GI50 [7]: 1800 nM | GI50 [8, 43]: 2450 to 3430 nM | GI50 [8, 44]: 2950 nM | LC50 [8, 45]: ≥ 100000 nM | GI50 ([9]; IGROV1, Ovarian, 48 h exposure): 1040 nM | GI50 ([9]; IGROV1, ovarian): 1040 nM | IC50 ([9]; IGROV1, Table 4, read-out: Comparative efficacy): 1040 nM | GI50 [10]: 1740 nM | GI50 [11]: 2960 nM | GI50 [12]: 5810 nM | GI50 [13]: 2180 nM | GI50 [14]: 2510 nM | GI50 [15, 46]: 1550 nM | CC50 [15, 47]: 87100 nM | GI50 [15, 48]: 40 to 5810 nM | GI50 [16]: 2820 nM | CC50 [16]: ≥ 100000 nM | IC50 [16]: 2050 to 3760 nM | GI50 [17]: 40 nM | IC50 ([17]; CAKI-1, Table 4, read-out: Comparative efficacy): 40 nM | GI50 [18]: 2300 nM | GI50 [19]: 1850 nM | GI50 [20]: 2250 nM | GI50 [21]: 2230 nM | IC50 [22]: 2330 nM | GI50 ([22]; HCT-116, Colon, 48 h exposure): 2330 nM | GI50 [23]: 2160 nM | GI50 [24]: 2940 nM | GI50 [25]: 1980 nM | GI50 [26]: 4190 nM | GI50 [27]: 2460 nM | GI50 [28]: 2490 nM | GI50 [29, 49]: 2240 nM | CC50 [29, 50]: 56200 nM | GI50 [29, 51]: 1050 to 3630 nM | GI50 [30]: 2050 nM | GI50 [31]: 2520 nM | GI50 [32]: 1820 nM | GI50 [33]: 2790 nM | GI50 [34]: 2070 nM | GI50 [35]: 2750 nM

COc1cc(C(=O)/C=C/c2c(C(F)(F)F)nc3sccn23)cc(OC)c1OC [Compound 7f, (E)-3-(6-(trifluoromethyl)imidazo[2,1-b]thiazol-5-yl)-1-(3,4,5-trimethoxyphenyl)prop-2-en-1-one]
GI50 [1]: 1740 nM | GI50 [2]: 2170 nM | GI50 [3, 37]: 2690 nM | CC50 [3, 38]: 57500 nM | GI50 [3, 39]: 1860 to 3080 nM | GI50 [4]: 3440 nM | GI50 [5, 40]: 1700 nM | CC50 [5, 41]: 9330 nM | GI50 [5, 42]: 1360 to 2260 nM | GI50 [7]: 2580 nM | GI50 [8, 43]: 1410 to 2660 nM | GI50 [8, 44]: 1950 nM | LC50 [8, 45]: 20000 nM | GI50 ([9]; IGROV1, Ovarian, 48 h exposure): 2660 nM | GI50 [10]: 1550 nM | GI50 [11]: 1820 nM | GI50 [12]: 2300 nM | GI50 [13]: 1380 nM | GI50 [14]: 1760 nM | GI50 [15, 46]: 1860 nM | CC50 [15, 47]: 10500 nM | GI50 [15, 48]: 1560 to 2300 nM | GI50 [16]: 2090 nM | CC50 [16]: 24500 nM | IC50 [16]: 1250 to 2920 nM | GI50 [17]: 1760 nM | GI50 [18]: 1650 nM | GI50 [19]: 1360 nM | GI50 [20]: 1930 nM | GI50 [36]: 1080 nM | GI50 [21]: 1240 nM | IC50 [22]: 1010 nM | GI50 ([22]; HCT-116, Colon, 48 h exposure): 1010 nM | GI50 ([22]; HCT-116, colon): 1010 nM | GI50 [23]: 1860 nM | GI50 [24]: 1800 nM | GI50 [25]: 3080 nM | GI50 [26]: 1690 nM | GI50 [27]: 1870 nM | GI50 [28]: 1720 nM | GI50 [29, 49]: 2450 nM | CC50 [29, 50]: 26900 nM | GI50 [29, 51]: 1650 to 7000 nM | GI50 [31]: 1740 nM | GI50 [32]: 1610 nM | GI50 [33]: 1940 nM | GI50 [34]: 1920 nM
